Columns and labels:
Assay in all cases: relative viability (nuclei count vs DMSO), 5 days (fraction); higher = more cells survive
Tivantinib + Foretinib = compound: O=C1NC(=O)[C@@H](c2cn3c4c(cccc24)CCC3)[C@@H]1c1c[nH]c2ccccc12 [Tivantinib] + COc1cc2c(Oc3ccc(NC(=O)C4(C(=O)Nc5ccc(F)cc5)CC4)cc3F)ccnc2cc1OCCCN1CCOCC1 [Foretinib] (partner 0.25 µM)
In short: (§1)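 Each reported value is a median over duplicate plates. It expresses relative viability: treated-well nuclei count divided by vehicle-well nuclei count. Lung cancer cell lines in 1536-well plates were dosed by pin tool a day after seeding, alone with one drug or with a fixed anchor-drug dose plus five library-drug doses (not always all listed) in √10 steps, and nuclei were counted after 5 days.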

Tivantinib + Pictilisib = compound: O=C1NC(=O)[C@@H](c2cn3c4c(cccc24)CCC3)[C@@H]1c1c[nH]c2ccccc12 [Tivantinib] + CS(=O)(=O)N1CCN(Cc2cc3nc(-c4cccc5[nH]ncc45)nc(N4CCOCC4)c3s2)CC1 [Pictilisib] (partner 1 µM)
In short: as §1

Crenolanib + Dasatinib = compound: CC1(COc2ccc3c(c2)ncn3-c2ccc3cccc(N4CCC(N)CC4)c3n2)COC1 [Crenolanib] + Cc1nc(Nc2ncc(C(=O)Nc3c(C)cccc3Cl)s2)cc(N2CCN(CCO)CC2)n1 [Dasatinib] (partner 0.075 µM)
In short: as §1

Tivantinib + Trametinib = compound: O=C1NC(=O)[C@@H](c2cn3c4c(cccc24)CCC3)[C@@H]1c1c[nH]c2ccccc12 [Tivantinib] + CC(=O)Nc1cccc(-n2c(=O)n(C3CC3)c(=O)c3c(Nc4ccc(I)cc4F)n(C)c(=O)c(C)c32)c1 [Trametinib] (partner 0.02 µM)
In short: as §1

Cell Line | relative viability (Tivantinib + Foretinib; first compound 0.01 µM) | relative viability (Tivantinib + Foretinib; first compound 0.03162 µM) | relative viability (Tivantinib + Foretinib; first compound 0.1 µM) | relative viability (Tivantinib + Foretinib; first compound 0.3162 µM) | relative viability (Tivantinib + Pictilisib; first compound 0.01 µM) | relative viability (Tivantinib + Pictilisib; first compound 0.03162 µM) | relative viability (Tivantinib + Pictilisib; first compound 0.1 µM) | relative viability (Tivantinib + Pictilisib; first compound 0.3162 µM) | relative viability (Crenolanib + Dasatinib; first compound 0.01 µM) | relative viability (Crenolanib + Dasatinib; first compound 0.03162 µM) | relative viability (Crenolanib + Dasatinib; first compound 0.1 µM) | relative viability (Crenolanib + Dasatinib; first compound 0.3162 µM) | relative viability (Crenolanib + Dasatinib; first compound 1 µM) | relative viability (Tivantinib + Trametinib; first compound 0.01 µM) | relative viability (Tivantinib + Trametinib; first compound 0.03162 µM) | relative viability (Tivantinib + Trametinib; first compound 0.1 µM) | relative viability (Tivantinib + Trametinib; first compound 0.3162 µM)
COR-L 105 | 0.834 | 0.991 | 0.982 | 0.735 | 0.401 | 0.335 | 0.389 | 0.406 | 0.453 | 0.315 | 0.383 | 0.42 | 0.411 | 0.425 | 0.412 | 0.455 | 0.356
NCI-H1993 | 0.808 | 0.762 | 0.766 | 0.545 | 0.817 | 0.857 | 0.843 | 0.902 | 0.621 | 0.63 | 0.588 | 0.623 | 0.429 | 0.545 | 0.462 | 0.565 | 0.437
NCI-H2009 | 1.23 | 1.22 | 1.21 | 1.27 | 0.875 | 0.464 | 0.767 | 0.763 | 0.323 | 0.297 | 0.257 | 0.294 | 0.227 | 0.328 | 0.246 | 0.273 | 0.238
SK-LU-1 | 0.932 | 0.919 | 0.705 | 0.708 | 0.669 | 0.524 | 0.614 | 0.548 | 0.198 | 0.182 | 0.159 | 0.194 | 0.172 | 0.514 | 0.549 | 0.484 | 0.472
NCI-H2347 | 0.94 | 1.12 | 0.712 | 1.05 | 0.986 | 0.724 | 0.514 | 0.525 | 0.31 | – | – | 0.278 | 0.295 | 0.246 | 0.316 | 0.231 | 0.248
EMC-BAC-2 | 1 | 0.962 | 0.487 | 0.72 | 0.562 | 0.511 | 0.567 | 0.527 | 0.369 | 0.312 | 0.315 | 0.313 | 0.307 | 0.907 | 0.934 | 0.879 | 0.868
NCI-H3122 | 0.947 | 0.982 | 0.909 | 0.951 | 0.585 | 0.599 | 0.545 | 0.441 | 0.862 | 0.73 | 0.782 | 0.963 | 0.972 | 0.219 | 0.216 | 0.199 | 0.202
NCI-H358 | 0.716 | 0.754 | 0.508 | 0.273 | 0.406 | 0.284 | 0.418 | 0.294 | 0.146 | 0.187 | 0.188 | 0.162 | 0.168 | 0.127 | 0.124 | 0.147 | 0.128
NCI-H1944 | 0.795 | 0.874 | 0.851 | 0.63 | 0.308 | 0.294 | 0.332 | 0.369 | 0.255 | 0.234 | 0.213 | 0.211 | 0.168 | 0.449 | 0.406 | 0.444 | 0.345
H3255 | 0.806 | 0.933 | 0.802 | – | 0.466 | 0.494 | 0.485 | – | 0.323 | 0.266 | 0.376 | 0.422 | 0.338 | – | 0.5 | 0.642 | 0.234
NCI-H1975 | 0.904 | 0.974 | 0.905 | 0.996 | 0.283 | 0.304 | 0.281 | 0.259 | 0.412 | 0.348 | 0.352 | 0.395 | 0.408 | 0.323 | 0.338 | 0.33 | 0.298
NCI-H647 | 1.25 | 1.18 | 1.12 | 1.21 | 0.45 | 0.341 | 0.409 | 0.371 | 0.175 | 0.209 | 0.196 | 0.189 | 0.201 | 0.462 | 0.411 | 0.416 | 0.369
NCI-H441 | 0.749 | 1.1 | 1.01 | 0.876 | 0.499 | 0.451 | 0.601 | 0.242 | 0.555 | 0.669 | 0.601 | 0.681 | 0.578 | 0.476 | 0.405 | 0.448 | 0.352
NCI-H1355 | 1.08 | 1.03 | 0.995 | 0.915 | 0.401 | 0.356 | 0.426 | 0.38 | 0.733 | 0.704 | 0.681 | 0.718 | 0.488 | 0.476 | 0.412 | 0.469 | 0.367
NCI-H23 | 1.08 | 0.957 | 1 | 0.801 | 0.43 | 0.324 | 0.533 | 0.382 | 0.804 | 0.778 | 0.71 | 0.848 | 0.643 | 0.509 | 0.352 | 0.37 | 0.347
LC-2-ad | 0.849 | 0.924 | 0.85 | 0.597 | 0.462 | 0.354 | 0.479 | 0.511 | 0.707 | 0.555 | 0.486 | 0.741 | 0.533 | 0.912 | 0.879 | 0.851 | 0.903

Cell Line | relative viability (Tivantinib + Foretinib; first compound 0.01 µM) | relative viability (Tivantinib + Foretinib; first compound 0.03162 µM) | relative viability (Tivantinib + Foretinib; first compound 0.1 µM) | relative viability (Tivantinib + Foretinib; first compound 0.3162 µM) | relative viability (Tivantinib + Pictilisib; first compound 0.01 µM) | relative viability (Tivantinib + Pictilisib; first compound 0.03162 µM) | relative viability (Tivantinib + Pictilisib; first compound 0.1 µM) | relative viability (Tivantinib + Pictilisib; first compound 0.3162 µM) | relative viability (Crenolanib + Dasatinib; first compound 0.01 µM) | relative viability (Crenolanib + Dasatinib; first compound 0.03162 µM) | relative viability (Crenolanib + Dasatinib; first compound 0.1 µM) | relative viability (Crenolanib + Dasatinib; first compound 0.3162 µM) | relative viability (Crenolanib + Dasatinib; first compound 1 µM) | relative viability (Tivantinib + Trametinib; first compound 0.01 µM) | relative viability (Tivantinib + Trametinib; first compound 0.03162 µM) | relative viability (Tivantinib + Trametinib; first compound 0.1 µM) | relative viability (Tivantinib + Trametinib; first compound 0.3162 µM)
NCI-H650 | 1.03 | 0.987 | 0.989 | 0.822 | 0.835 | – | 0.817 | 0.8 | 0.493 | 0.472 | 0.425 | 0.404 | 0.356 | 0.936 | 0.787 | 0.899 | 0.945
SK-MES-1 | 1.02 | 0.637 | 0.962 | 0.924 | 0.413 | 0.368 | 0.4 | 0.213 | 0.39 | 0.448 | 0.358 | 0.409 | 0.358 | 0.645 | 0.511 | 0.521 | 0.582
NCI-H2170 | 0.975 | 0.929 | 1.02 | – | 0.298 | 0.222 | 0.33 | – | 0.697 | 0.569 | 0.591 | 0.598 | 0.641 | 0.934 | 0.847 | 0.844 | –
NCI-H2087 | 1.1 | 1.16 | 0.914 | 1.13 | 0.958 | 0.757 | 0.909 | 0.896 | 0.809 | 1.03 | 0.694 | 1.07 | 0.818 | 0.217 | 0.184 | 0.227 | 0.172
NCI-H838 | 1 | 1.07 | 0.992 | 1.07 | 0.442 | 0.479 | 0.389 | 0.373 | 0.262 | 0.294 | 0.273 | 0.28 | 0.219 | 0.542 | 0.501 | 0.469 | 0.527
NCI-H460 | 0.935 | 1.06 | 0.94 | 0.97 | 0.331 | 0.274 | 0.335 | 0.33 | 0.506 | 0.461 | 0.531 | 0.565 | 0.522 | 0.172 | 0.114 | 0.286 | 0.169
LU99A | 0.692 | 0.84 | 0.737 | 0.6 | 0.288 | 0.308 | 0.292 | 0.287 | 0.492 | 0.579 | 0.669 | 0.581 | 0.522 | 0.436 | 0.494 | 0.505 | 0.521
NCI-H322M | 1.02 | 0.922 | 0.943 | – | 0.505 | 0.481 | 0.467 | 0.4 | 0.241 | 0.258 | 0.255 | 0.251 | 0.303 | 0.486 | 0.471 | 0.449 | –
NCI-H520 | 0.869 | 0.792 | 0.655 | 0.708 | 0.292 | 0.237 | 0.268 | 0.262 | 0.244 | 0.194 | 0.197 | 0.244 | 0.309 | 0.798 | 0.723 | 0.576 | 0.701
NCI-H661 | 1.01 | 1.04 | 0.968 | 0.686 | 0.472 | 0.394 | 0.387 | 0.269 | 0.958 | 0.845 | 0.864 | 0.992 | 1.09 | 0.602 | 0.561 | 0.536 | 0.355
NCI-H727 | 0.829 | 0.857 | 0.629 | 0.732 | 0.36 | 0.368 | 0.447 | – | 0.348 | 0.364 | 0.338 | 0.347 | 0.49 | 0.413 | 0.343 | 0.398 | –
NCI-H1793 | 0.698 | 0.616 | 0.762 | 0.548 | 0.353 | 0.42 | 0.437 | – | 0.365 | 0.412 | 0.4 | 0.404 | 0.418 | 0.506 | 0.408 | 0.404 | 0.329
NCI-H1755 | 0.971 | 0.863 | 0.871 | 1.03 | 0.462 | 0.417 | 0.39 | 0.355 | 0.465 | 0.472 | 0.395 | 0.437 | 0.384 | 0.78 | 0.748 | 0.666 | 0.771
HARA | 0.864 | 0.795 | 0.935 | 0.643 | 0.389 | 0.237 | 0.474 | 0.253 | 0.234 | 0.256 | 0.3 | 0.246 | 0.292 | 0.66 | 0.633 | 0.776 | 0.371
201T | 1.16 | 1.01 | 1.02 | 0.921 | 0.713 | 0.569 | 0.673 | 0.694 | 0.603 | 0.602 | 0.569 | 0.528 | 0.614 | 0.694 | 0.713 | 0.729 | 0.69
NCI-H2228 | – | 0.841 | 0.678 | 0.714 | 0.405 | 0.345 | 0.458 | 0.413 | 0.488 | 0.555 | 0.519 | 0.46 | 0.518 | 0.608 | 0.396 | 0.494 | 0.227
